SMILES strings stand for the structures.

Assay [1] concerns patients with AP and accompanying SIRS plus hypoxemia. In words: Clinical and pharmacodynamic study in patients with acute pancreatitis, SIRS and hypoxemia. Conditions: human, in vivo.
The subject of the next assay is human lymphocytes. In words: In vitro cytokine release in human lymphocytes. The class given is cell-based. The source says: (§1) Preclinical data supports the use of CRAC inhibitors (e.g. N-(5-(6-Chloro-2,2-difluorobenzo[d][1,3]dioxol-5-yl)pyrazin-2-yl)-2-fluoro-6-methylbenzamide, Compound 1) in severe COVID-19 pneumonia.
The target in another assay is CRAC channels (Homo sapiens, UniProt Q96D31). Briefly: CRAC channel inhibition.
Chain of CRAC channels (Q96D31 whole entry): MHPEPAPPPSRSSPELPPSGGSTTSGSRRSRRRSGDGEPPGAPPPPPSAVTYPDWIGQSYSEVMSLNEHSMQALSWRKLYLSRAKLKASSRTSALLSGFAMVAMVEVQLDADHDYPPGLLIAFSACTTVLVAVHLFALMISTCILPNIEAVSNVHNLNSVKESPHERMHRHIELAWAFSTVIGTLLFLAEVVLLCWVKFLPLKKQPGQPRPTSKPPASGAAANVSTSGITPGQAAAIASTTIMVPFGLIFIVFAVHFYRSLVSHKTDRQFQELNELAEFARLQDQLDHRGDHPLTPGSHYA
The subject of assay [2] is lung tissue cytokines and neutrophil infiltration. In words: Animal models of acute pancreatitis (AP) and lung injury. Type of assay: in vivo.
Excerpt: as §1

Take `Cc1cccc(F)c1C(=O)Nc1cnc(-c2cc3c(cc2Cl)OC(F)(F)O3)cn1` [Compound 1, N-(5-(6-Chloro-2,2-difluorobenzo[d][1,3]dioxol-5-yl)pyrazin-2-yl)-2-fluoro-6-methylbenzamide]: in assay [1], the “IL-6 levels in patients” value was “marked reduction in IL-6 levels” and the “Respiratory dysfunction in patients” value is recorded as “beneficial effects on respiratory dysfunction”. The “Release of multiple cytokines” value in the assay with human lymphocytes is recorded as “inhibits release of multiple cytokines”. In addition, the “Inhibition of CRAC channels” value at CRAC channels is “potent and selective”. In assay [2], the “Cytokines and neutrophil infiltration in lung tissue” value is “inhibit cytokines and neutrophil infiltration in lung tissue”.

(Values after patent US20250120969A1, “METHODS AND COMPOSITIONS FOR TREATING INFLAMMATION INJURY IN THE LUNGS” (CalciMedica, Inc., priority 2022, published 2025).)
